Source: patent US20200399222A1, “PICOLINAMIDES AS FUNGICIDES” (Dow AgroSciences LLC, priority 2018, published 2020)
Where two headings read alike, the source gives them in different places.

Tested on: Phakopsora pachyrhizi
Assay: Asian soybean rust (PHAKPA) disease control on soybean seedlings
Format: in vivo
Settings: High volume application at 25 ppm; for pest or weed control at 25 ppm: Phakopsora pachyrhizi
Description: Example C: Evaluation of Fungicidal Activity: Asian Soybean Rust (Phakopsora pachyrhizi; Bayer Code […]) Technical grades of materials were dissolved in acetone, which were then mixed with nine volumes of water containing 0.011% Tween 20. The fungicide solutions were applied onto soybean seedlings using an automated booth sprayer to run-off. All sprayed plants were allowed to air dry prior to further handling. Soybean plants (variety Williams 82) were grown in soil-less Metro mix, with one plant per pot. Two week old seedlings were used for testing. Plants were inoculated either 3 days prior to or 1 day after fungicide treatments. Plants were incubated for 24 h in a dark dew room at 22° C. and 100% relative humidity then transferred to a growth room at 23° C. for disease to develop. Disease severity was assessed on the sprayed leaves.

[1] = 24 h, 1 day protectant, read-out: PHAKPA 1DP (1 Day Protectant) disease control
[2] = 72 h, 3 day curative, read-out: PHAKPA 3DC (3 Day Curative) disease control

Row | SMILES | PHAKPA 1DP (1 Day Protectant) disease control (1 day protectant) | PHAKPA 3DC (3 Day Curative) disease control (3 day curative) | pest or weed control at 25 ppm [1] | pest or weed control at 25 ppm [2]
1 | COc1ccc([C@H](C)[C@H](C)OC(=O)[C@H](C)NC(=O)c2nccc(OC)c2OC(=O)C(C)C)c(C)c1 [Example 204] | A (>80) | A (>80) |  | 
2 | COc1ccnc(C(=O)N[C@H](C(=O)O[C@H](C)[C@H](C)c2ccc(F)cc2)C(C)C)c1OC(C)=O [Example 192] |  |  | < 80% | < 0%
3 | COc1ccnc(C(=O)N[C@@H](C)C(=O)O[C@@H](C)[C@H](C)c2ccccc2C)c1OC(=O)C(C)C [Example 202] | B (≤80) |  |  | < 0%
4 | COc1ccnc(C(=O)N[C@H](C(=O)O[C@@H](C)[C@@H](C)c2ccc(F)cc2C)C(C)C)c1OC(C)=O [Example 184] |  |  | > 80% | > 80%
5 | COc1ccnc(C(=O)N[C@H](C(=O)O[C@@H](C)[C@@H](C)c2ccc(F)cc2C)C(C)C)c1OC(=O)C(C)C [Example 207] | B (≤80) | D (≤0) |  | 
6 | COc1ccc([C@H](C)[C@H](C)OC(=O)[C@@H](NC(=O)c2nccc(OC)c2OC(=O)C(C)C)C(C)C)c(C)c1 [Example 213] |  |  | > 80% | < 80%
7 | COc1ccnc(C(=O)NCC(=O)O[C@@H](C)[C@H](C)c2ccc(F)cc2C)c1OC(=O)C(C)C [Example 197] |  |  | < 0% | < 0%
8 | CCC(=O)Oc1c(OC)ccnc1C(=O)N[C@@H](C)C(=O)O[C@@H](C)[C@@H](C)c1ccccc1C [Example 278] |  |  | > 80% | > 80%
9 | COc1ccnc(C(=O)N[C@@H](C)C(=O)O[C@H](C)[C@@H](C)c2ccc(F)cc2C)c1OC(C)=O [Example 181] |  |  | < 80% | < 0%
10 | CCCCC(=O)Oc1c(OC)ccnc1C(=O)N[C@@H](C)C(=O)O[C@@H](C)[C@@H](C)c1ccccc1C [Example 280] |  |  | > 80% | > 80%
11 | COc1ccc([C@H](C)[C@H](C)OC(=O)CNC(=O)c2nccc(OC)c2OC(=O)C(C)C)c(C)c1 [Example 200] |  | B (≤80) | < 80% | 
12 | COc1ccnc(C(=O)NCC(=O)O[C@@H](C)[C@@H](C)c2ccc(F)cc2C)c1OC(=O)C(C)C [Example 221] | D (≤0) | D (≤0) |  | 
13 | COc1ccnc(C(=O)N[C@H](C(=O)O[C@@H](C)[C@@H](C)c2ccc(F)cc2)C(C)C)c1OC(=O)C(C)C [Example 212] |  |  | < 80% | < 80%
14 | COc1ccnc(C(=O)N[C@H](C(=O)O[C@@H](C)[C@H](C)c2ccc(F)cc2C)C(C)C)c1OC(=O)C(C)C [Example 210] |  |  | < 0% | < 0%
15 | COc1ccnc(C(=O)N[C@H](C(=O)O[C@@H](C)[C@@H](C)c2ccc(F)cc2C)C(C)C)c1OC(=O)C(C)C [Example 205] |  | B (≤80) | > 80% | 
16 | COc1ccnc(C(=O)N[C@@H](C)C(=O)O[C@H](C)[C@H](C)c2ccc(F)cc2)c1OC(C)=O [Example 182] |  |  | < 80% | < 80%
17 | COc1ccc([C@@H](C)[C@@H](C)OC(=O)[C@H](C)NC(=O)c2nccc(OC)c2OC(C)=O)c(C)c1 [Example 220] | B (≤80) | B (≤80) |  | 
18 | COc1ccnc(C(=O)N[C@H](C(=O)O[C@@H](C)[C@H](C)c2ccccc2C)C(C)C)c1OC(C)=O [Example 186] |  |  | < 80% | < 80%
19 | COc1ccnc(C(=O)NCC(=O)O[C@@H](C)[C@@H](C)c2ccc(F)cc2)c1OC(=O)C(C)C [Example 199] |  |  | < 0% | < 0%
20 | COc1ccnc(C(=O)N[C@H](C(=O)O[C@H](C)[C@H](C)c2ccc(F)cc2C)C(C)C)c1OC(=O)C(C)C [Example 214] |  |  | < 80% | < 80%
